Experimental data reported in patent US7962204B2 (priority 2001, dated 2011).

Tested on: behaviorally-diagnosed psychiatric conditions (DSM categories)
Set-up: species or system human
Conditions: in vivo
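For use code of agent in 301.7 Antisocial Personality Disorder in this document: N marks novel agent found effective in subject subgroups.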
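For use code of agent in 301.83 Borderline Personality Disorder in this document: N marks novel agent found effective in subject subgroups.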
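For use in 307.50 Eating Disorder NOS in this document: N marks novel agent found effective in subject subgroups.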
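For use in 307.51 Bulimia Nervosa in this document: N marks novel agent found effective in subject subgroups.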

CC(NC(C)(C)C)C(=O)c1cccc(Cl)c1 (stereo not drawn) [BUPROPRION (REGULAR TABS)]
N: use code of agent in 301.20 Schizoid Personality Disorder | use code of agent in 301.22 Schizotypal Personality Disorder | use code of agent in 301.4 Obsessive-Compulsive Personality Disorder | use code of agent in 301.50 Histrionic Personality Disorder | use code of agent in 301.6 Dependent Personality Disorder | use code of agent in 301.7 Antisocial Personality Disorder | use code of agent in 301.82 Avoidant Personality Disorder | use code of agent in 301.83 Borderline Personality Disorder | use code of agent in 302.71 Hypoactive Sexual Desire Disorder | use code of agent in 307.42 Primary Insomnia | use code of agent in 311 Depressive Disorder NOS | use code of agent in 316 Psychological Factors Affecting Medical Condition, Atypical Asthma | use code of agent in 316 Psychological Factors Affecting Medical Condition, Neurodermatitis | use code of agent in Bipolar I Disorder | use in 294.8 Amnestic Disorder | use in 294.9 Cognitive Disorder NOS | use in 296.89 Bipolar II Disorder | use in 299.80 Pervasive Developmental Disorder NOS | use in 300.00 Anxiety Disorder NOS | use in 300.02 Generalized Anxiety Disorder | use in 300.22 Agoraphobia Without History of Panic Disorder | use in 300.23 Social Phobia | use in 300.29 Specific Phobia | use in 300.3 Obsessive-Compulsive Disorder | use in 301.13 Cyclothymic Disorder | use in 307.1 Anorexia Nervosa | use in 307.50 Eating Disorder NOS | use in 307.51 Bulimia Nervosa | use in 307.9 Communication Disorder NOS | use in 309.21 Separation Anxiety Disorder | use in 309.81 Posttraumatic Stress Disorder | use in 312.30 Impulse-Control Disorder NOS | use in 312.31 Pathological Gambling | use in 312.34 Intermittent Explosive Disorder | use in 312.39 Trichotillomania | use in 312.8 Conduct Disorder | use in 313.81 Oppositional Defiant Disorder | use in 315.9 Learning Disorder NOS | use in Attention-Deficit/Hyperactivity Disorder | use in Panic Disorder | use of the agent in the diagnostic category (C = common use; N = novel use from rEEG features)

Cc1ccc(-c2nc3ccc(C)cn3c2CC(=O)N(C)C)cc1 [ZOLIPIDEM]
N: use of the agent in the diagnostic category (C = common use; N = novel use from rEEG features)

COC(=O)C(c1ccccc1)C1CCCCN1 (stereo not drawn) [METHYLPHENIDATE]
N: use code of agent in 294.9 Cognitive Disorder NOS | use code of agent in 296.90 Mood Disorder NOS | use code of agent in 300.4 Dysthymic Disorder | use code of agent in 301.13 Cyclothymic Disorder | use code of agent in 307.1 Anorexia Nervosa | use code of agent in 307.50 Eating Disorder NOS | use code of agent in 307.51 Bulimia Nervosa | use code of agent in 312.30 Impulse-Control Disorder NOS | use code of agent in 312.31 Pathological Gambling | use code of agent in 312.39 Trichotillomania | use code of agent in 312.8 Conduct Disorder | use code of agent in 313.81 Oppositional Defiant Disorder | use code of agent in 315.9 Learning Disorder NOS

N[C@@H](Cc1ccc(O)cc1)C(=O)O [TYROSINE]
N: use in Dementia of the Alzheimer's Type

O=C(NCCN1CCOCC1)c1ccc(Cl)cc1 [MOCLOBEMIDE]
N: use code of agent in 302.71 Hypoactive Sexual Desire Disorder | use code of agent in 316 Psychological Factors Affecting Medical Condition, Hypertensive Disorder NOS

Cc1nc2n(c(=O)c1CCN1CCC(c3noc4cc(F)ccc34)CC1)CCCC2 [RISPERDONE]
N: use in 300.22 Agoraphobia Without History of Panic Disorder

CN[C@@H](C)Cc1ccccc1 [METHAMPHETAMINE]
N: use code of agent in 294.9 Cognitive Disorder NOS | use code of agent in 296.90 Mood Disorder NOS | use code of agent in 300.4 Dysthymic Disorder | use code of agent in 301.13 Cyclothymic Disorder | use code of agent in 307.1 Anorexia Nervosa | use code of agent in 307.51 Bulimia Nervosa | use code of agent in 312.30 Impulse-Control Disorder NOS | use code of agent in 312.31 Pathological Gambling | use code of agent in 312.39 Trichotillomania | use code of agent in 312.8 Conduct Disorder | use code of agent in 313.81 Oppositional Defiant Disorder | use code of agent in 315.9 Learning Disorder NOS

COCCc1ccc(OCC(O)CNC(C)C)cc1 (stereo not drawn) [METOPOLOL]
N: use code of agent in 296.89 Bipolar II Disorder | use code of agent in 296.90 Mood Disorder NOS | use code of agent in 301.13 Cyclothymic Disorder | use code of agent in 301.20 Schizoid Personality Disorder | use code of agent in 301.22 Schizotypal Personality Disorder | use code of agent in 301.4 Obsessive-Compulsive Personality Disorder | use code of agent in 301.50 Histrionic Personality Disorder | use code of agent in 301.6 Dependent Personality Disorder | use code of agent in 301.7 Antisocial Personality Disorder | use code of agent in 301.82 Avoidant Personality Disorder | use code of agent in 301.83 Borderline Personality Disorder | use code of agent in 307.42 Primary Insomnia | use code of agent in 311 Depressive Disorder NOS | use code of agent in 312.34 Intermittent Explosive Disorder | use code of agent in 312.39 Trichotillomania | use code of agent in 316 Psychological Factors Affecting Medical Condition, Hypertensive Disorder NOS | use code of agent in 316 Psychological Factors Affecting Medical Condition, Irritable Bowel Syndrome | use code of agent in 316 Psychological Factors Affecting Medical Condition, Neurodermatitis | use code of agent in Bipolar I Disorder | use code of agent in Major Depressive Disorder, Recurrent | use code of agent in Major Depressive Disorder, Single Episode | use in 294.9 Cognitive Disorder NOS | use in 299.00 Autistic Disorder | use in 299.80 Pervasive Developmental Disorder NOS | use in 300.00 Anxiety Disorder NOS | use in 300.02 Generalized Anxiety Disorder | use in 300.22 Agoraphobia Without History of Panic Disorder | use in 300.23 Social Phobia | use in 300.3 Obsessive-Compulsive Disorder | use in 307.1 Anorexia Nervosa | use in 307.20 Tic Disorder NOS | use in 307.22 Chronic Motor or Vocal Tic Disorder | use in 307.23 Tourette's Disorder | use in 307.50 Eating Disorder NOS | use in 307.51 Bulimia Nervosa | use in 309.21 Separation Anxiety Disorder | use in 309.81 Posttraumatic Stress Disorder | use in 312.30 Impulse-Control Disorder NOS | use in 312.31 Pathological Gambling | use in 312.8 Conduct Disorder | use in 313.81 Oppositional Defiant Disorder | use in 315.9 Learning Disorder NOS | use in Attention-Deficit/Hyperactivity Disorder | use in Panic Disorder | use of the agent in the diagnostic category (C = common use; N = novel use from rEEG features)

GABA [reference compound]
N: agent found effective in 300.00 Anxiety Disorder NOS | agent found effective in 300.02 Generalized Anxiety Disorder | agent found effective in 300.22 Agoraphobia Without History of Panic Disorder | agent found effective in 300.23 Social Phobia | agent found effective in 300.29 Specific Phobia | agent found effective in 300.3 Obsessive-Compulsive Disorder | agent found effective in 309.81 Posttraumatic Stress Disorder | agent found effective in Panic Disorder | use code of agent in 301.4 Obsessive-Compulsive Personality Disorder | use code of agent in 301.7 Antisocial Personality Disorder | use code of agent in 301.82 Avoidant Personality Disorder | use code of agent in 301.83 Borderline Personality Disorder | use code of agent in 307.42 Primary Insomnia | use code of agent in 316 Psychological Factors Affecting Medical Condition, Neurodermatitis | use in 300.00 Anxiety Disorder NOS | use in 300.02 Generalized Anxiety Disorder | use in 300.22 Agoraphobia Without History of Panic Disorder | use in 300.23 Social Phobia | use in 300.29 Specific Phobia | use in 300.3 Obsessive-Compulsive Disorder | use in 307.1 Anorexia Nervosa | use in 307.22 Chronic Motor or Vocal Tic Disorder | use in 307.50 Eating Disorder NOS | use in 307.51 Bulimia Nervosa | use in 309.21 Separation Anxiety Disorder | use in 309.81 Posttraumatic Stress Disorder | use in 313.81 Oppositional Defiant Disorder | use in Panic Disorder | use of the agent in the diagnostic category (C = common use; N = novel use from rEEG features)

COC(=O)C(c1ccccc1)C1CCCCN1 (stereo not drawn) [SR METHYLPHENIDATE]
N: use code of agent in 294.8 Amnestic Disorder | use code of agent in 296.89 Bipolar II Disorder | use code of agent in 312.34 Intermittent Explosive Disorder | use code of agent in Dementia of the Alzheimer's Type | use in 299.80 Pervasive Developmental Disorder NOS | use in 300.00 Anxiety Disorder NOS | use in 300.02 Generalized Anxiety Disorder | use in 300.22 Agoraphobia Without History of Panic Disorder | use in 300.23 Social Phobia | use in 300.29 Specific Phobia | use in 300.3 Obsessive-Compulsive Disorder | use in 307.22 Chronic Motor or Vocal Tic Disorder | use in 307.9 Communication Disorder NOS | use in 309.21 Separation Anxiety Disorder | use in 309.81 Posttraumatic Stress Disorder | use in Panic Disorder | use of agent in DSM category (C/N code) | use of the agent in the diagnostic category (C = common use; N = novel use from rEEG features)

Clc1cccc(Cl)c1N=C1NCCN1 [CLONIDINE]
N: use code of agent in 316 Psychological Factors Affecting Medical Condition, Hypertensive Disorder NOS

N=C(N)NC(=O)Cc1c(Cl)cccc1Cl [[…]]
N: use code of agent in 316 Psychological Factors Affecting Medical Condition, Hypertensive Disorder NOS
